According to ChEMBL document CHEMBL1121590, “Synthesis and enzymatic and inotropic activity of some new 8-substituted and 6,8-disubstituted derivatives of adenosine cyclic 3',5'-monophosphate” (J Med Chem, 1980):

How the values were obtained:
Phosphodiesterase 4 = Phosphodiesterase 4 (Homo sapiens, UniProt P27815+Q08499+Q07343+Q08493); conditions: Oryctolagus cuniculus; Kidney
Description: Susceptibility to be hydrolysed by a partially purified cAMP phosphodiesterase from rabbit kidney

[1] = Inhibition of cAMP phosphodiesterase preparation from rabbit lung at a substrate concentration of 0.14 uM

| Hydrolysis (Phosphodiesterase 4) | I50 [1] [µM] | Compound |
| --- | --- | --- |
| < 0.05 | 13 | Cc1ccc(CSc2nc3c(N)ncnc3n2[C@@H]2O[C@@H]3COP(=O)(O)O[C@H]3[C@H]2O)cc1 |
| < 0.05 | 57 | Nc1ncnc2c1nc(Sc1ccccc1)n2[C@@H]1O[C@@H]2COP(=O)(O)O[C@H]2[C@H]1O |
| < 0.05 | 29 | Cc1ccccc1Sc1nc2c(N)ncnc2n1[C@@H]1O[C@@H]2COP(=O)(O)O[C@H]2[C@H]1O |
| < 0.05 | 2 | CC(C)CCNc1ncnc2c1nc(SCc1ccccc1)n2[C@@H]1O[C@@H]2COP(=O)(O)O[C@H]2[C@H]1O |
| < 0.05 | – | CCCCN(C)c1ncnc2c1nc(SCc1ccccc1)n2[C@@H]1O[C@@H]2COP(=O)(O)O[C@H]2[C@H]1O |
| 0.8 | 83 | Nc1ncnc2c1nc(N)n2[C@@H]1O[C@@H]2COP(=O)(O)O[C@H]2[C@H]1O |
| < 0.05 | 11 | Nc1ncnc2c1nc(SCc1ccc(Cl)cc1)n2[C@@H]1O[C@@H]2COP(=O)(O)O[C@H]2[C@H]1O |
| < 0.05 | 25 | Nc1ncnc2c1nc(SCc1cccc([N+](=O)[O-])c1)n2[C@@H]1O[C@@H]2COP(=O)(O)O[C@H]2[C@H]1O |
| < 0.05 | 100 | Nc1ncnc2c1nc(SCc1cccnc1)n2[C@@H]1O[C@@H]2COP(=O)(O)O[C@H]2[C@H]1O |
| < 0.05 | – | Nc1ncnc2c1nc(Sc1ccc(Cl)cc1)n2[C@@H]1O[C@@H]2COP(=O)(O)O[C@H]2[C@H]1O |
| < 0.05 | – | Nc1ncnc2c1nc(Br)n2[C@@H]1O[C@@H]2COP(=O)(O)O[C@H]2[C@H]1O |

More lines, now with the values behind:

| Compound | Hydrolysis (Phosphodiesterase 4) | I50 [1] [µM] |
| --- | --- | --- |
| CSc1nc2c(NCc3ccccc3)ncnc2n1[C@@H]1O[C@@H]2COP(=O)(O)O[C@H]2[C@H]1O | 0.19 | 17 |
| CCN(CC)c1ncnc2c1nc(Cl)n2[C@@H]1O[C@@H]2COP(=O)(O)O[C@H]2[C@H]1O | 0.1 | 18 |
| CCN(CC)c1ncnc2c1ncn2[C@@H]1O[C@@H]2COP(=O)(O)O[C@H]2[C@H]1O | 0.09 | 67 |
| CCNc1ncnc2c1ncn2[C@@H]1O[C@@H]2COP(=O)(O)O[C@H]2[C@H]1O | 0.2 | 400 |
| O=P1(O)OC[C@H]2O[C@@H](n3c(Sc4ccc(Cl)cc4)nc4c(Nc5ccccc5)ncnc43)[C@H](O)[C@@H]2O1 | < 0.05 | 36 |
| CCCN(CCC)c1ncnc2c1nc(SCc1ccccc1)n2[C@@H]1O[C@@H]2COP(=O)(O)O[C@H]2[C@H]1O | < 0.05 | – |
| O=P1(O)OC[C@H]2O[C@@H](n3c(SCc4ccccc4)nc4c(N5CCCCC5)ncnc43)[C@H](O)[C@@H]2O1 | < 0.05 | 4.8 |
| CCCCNc1ncnc2c1ncn2[C@@H]1O[C@@H]2COP(=O)(O)O[C@H]2[C@H]1O | 0.21 | 33 |
| O=P1(O)OC[C@H]2O[C@@H](n3cnc4c(NCc5ccccc5)ncnc43)[C@H](O)[C@@H]2O1 | 0.3 | 130 |
| O=c1[nH]c2c(Cl)ncnc2n1[C@@H]1O[C@@H]2COP(=O)(O)O[C@H]2[C@H]1O | < 0.05 | > 400 |
| O=P1(O)OC[C@H]2O[C@@H](n3c(Br)nc4c(NCc5ccccc5)ncnc43)[C@H](O)[C@@H]2O1 | < 0.05 | 61 |
| CCN(CC)c1nc2c(Cl)ncnc2n1[C@@H]1O[C@@H]2COP(=O)(O)O[C@H]2[C@H]1O | 0.1 | 80 |
| CCCCNc1ncnc2c1nc(Sc1ccc(Cl)cc1)n2[C@@H]1O[C@@H]2COP(=O)(O)O[C@H]2[C@H]1O | < 0.05 | – |
| CCCCCCNc1ncnc2c1nc(SCc1ccccc1)n2[C@@H]1O[C@@H]2COP(=O)(O)O[C@H]2[C@H]1O | < 0.05 | 30 |
| CCCCNc1ncnc2c1nc(SC)n2[C@@H]1O[C@@H]2COP(=O)(O)O[C@H]2[C@H]1O | 0.26 | 53 |
| CCCCNc1ncnc2c1nc(Br)n2[C@@H]1O[C@@H]2COP(=O)(O)O[C@H]2[C@H]1O | < 0.05 | – |
